Results published in patent publication US20250074911A1, “MACROCYCLIC BTK INHIBITORS” (Crossfire Oncology Holding B.V., priority 2021, published 2025).
Where “and” joins values, the source holds several entries; their conditions need not be identical. Identical values can stand only once.

Assays:
REC-1 T474I cell lines = experiment: Cell proliferation assay REC-1 BTK T474I knock-in cells (ATPlite, 72 hours); assay type: cell-based; conditions: Homo sapiens, Rec1; 72 hours; read-out: IC50 REC-1 T474I
Summary of the method: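 REC-1 cells carrying CRISPR knock-in mutant BTK, single-cell cloned and sequence-confirmed, were exposed to compound for 72 h and read by ATPlite luminescence. Percentage growth was calculated against the signal at the start of incubation and against untreated 0.3% DMSO wells as maximum growth.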

wt-BTK = wt-BTK (Homo sapiens (Human), UniProt Q06187); experiment: Binding kinetics measurements (Surface Plasmon Resonance) on wt-BTK; conditions: for Kd: binding affinity by Surface Plasmon Resonance (SPR); for Tau (h) wt-BTK (Act): target residence time, SPR
Summary of the method: (§1)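 SPR, single cycle kinetics: 5 injections, 3.16-316 nM, 30 μl/min (avoids mass transport limitation), 22° C, 1% DMSO buffer. Protein immobilized at 4° C on streptavidin chip, biocytin block. Blank run first; reference channel and buffer curves subtracted.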

[1] = tested on: wt-REC-1 mantle cell lymphoma cells; experiment: Cell proliferation assay wt-REC-1 (ATPlite, 72 hours); assay type: cell-based; conditions: 72 h; read-out: IC50 wt-REC-1
Summary of the method: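 Luminescent viability read over 72 h, start-of-incubation signal recorded separately to separate growth from cell death. Percentage growth referenced to compound-free 0.3% DMSO wells; IC50 from 4-parameter logistic fit.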

[2] = tested on: wt-TMD8 diffuse large B-cell lymphoma cells; experiment: Cell proliferation assay wt-TMD8 (ATPlite, 120 hours); assay type: cell-based; conditions: B-cell; wt-TMD8 cells, 120 hours, ATPlite; read-out: IC50 wt-TMD8
Summary of the method: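 wt-TMD8 DLBCL cells, 1600 per well in RPMI-1640 with 10% FBS, rested ≥5 h then exposed to compound for 120 h at 37° C, 5% CO2. Viability read by ATPlite luminescence; percentage growth calculated relative to start-of-incubation signal and untreated 0.3% DMSO maximum growth.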

[3] = biological target: full-length wt-BTK enzyme (Homo sapiens (Human), UniProt Q06187); experiment: Biochemical kinase assay wt-BTK (IMAP)
Summary of the method: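 IMAP fluorescence polarization assay: 1.2 nM enzyme pre-incubated 1 h with compound at room temperature, then 50 nM fluorescein-labeled MBP-derived peptide and 4 μM ATP added. Reaction ran 2 h at room temperature in the dark before quenching with IMAP binding solution.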

[4] = biological target: full-length BTK C481S enzyme (Homo sapiens (Human), UniProt Q06187, C481S); experiment: Biochemical kinase assay BTK C481S (IMAP)
Summary of the method: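 Full-length BTK C481S (1.2 nM) was pre-incubated with compound for 1 h at room temperature in the dark, then reacted with fluorescein-labelled MBP-derived peptide (50 nM) and ATP (7 μM) for 2 h. Reactions were quenched with IMAP binding solution, and IC50 values were derived from fluorescence polarization.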

BTK T474S = BTK T474S (Homo sapiens (Human), UniProt Q06187, T474S); experiment: Binding kinetics measurements (Surface Plasmon Resonance) on BTK T474S; conditions: for residence time: SPR binding kinetics, BTK T474S, read-out: Tau (h) BTK T474S (Act), target residence time (converted); for Kd: binding affinity by Surface Plasmon Resonance (SPR)
Experimental: (§2) Binding kinetics measurements on wt-BTK, BTK […], BTK […], BTK […] and BTK […] (Surface Plasmon Resonance) Streptavidin-coated chips (Cat. No. BR100531), disposables and maintenance kits for Biacore were purchased from Cytiva (Eindhoven, The Netherlands). […] Remaining streptavidin was blocked with biocytin. Immobilization was performed at 4° C. Subsequent assay steps were conducted at 22° C. After changing buffer to Biacore buffer with 1% (v/v) dimethylsulfoxide (DMSO), a pre-run was performed for a period of at least 30 min at a flow rate of 30 μl/min to obtain a stable surface. The kinetic constants of the compounds were determined with single cycle kinetics with five consecutive injections with an increasing compound concentration with ranges of 3.16-316 nM. […] To circumvent problems of mass transport limitation, a flow rate of 30 μl/min was used. A blank run with the same conditions was performed before the compound was injected. The SPR sensorgrams were analyzed with Biacore Evaluation Software by using a method of double referencing. First the reference channel was subtracted from the channel containing immobilized protein. Subsequently, the reference curve obtained with buffer injections was subtracted. […] Compounds that bound according to an induced fit model were fitted with a two-state reaction model. The kinetic constants (ka, […], KD) of duplicates were geometrically averaged. […] Target residence for an induced fit model was calculated as described (Tummino and Copeland, 2008).

BTK T316A = BTK T316A (Homo sapiens (Human), UniProt Q06187, T316A); experiment: Binding kinetics measurements (Surface Plasmon Resonance) on BTK T316A; conditions: for Kd: binding affinity by Surface Plasmon Resonance (SPR); for Tau (h) BTK T316A (Act): target residence time, SPR
Experimental: as §2

BTK T474I = BTK T474I (Homo sapiens (Human), UniProt Q06187, T474I); experiment: Binding kinetics measurements (Surface Plasmon Resonance) on BTK T474I; conditions: for Kd: binding affinity by Surface Plasmon Resonance (SPR); for Tau (h) BTK T474I (Act): target residence time, SPR
Summary of the method: as §1

BTK C481S = BTK C481S (Homo sapiens (Human), UniProt Q06187, C481S); experiment: Binding kinetics measurements (Surface Plasmon Resonance) on BTK C481S; conditions: for Tau (h) BTK C418S (Act): target residence time for BTK C481S, SPR; for Kd: binding affinity by Surface Plasmon Resonance (SPR)
Experimental: as §2

Sequence of wt-BTK (Q06187 whole entry): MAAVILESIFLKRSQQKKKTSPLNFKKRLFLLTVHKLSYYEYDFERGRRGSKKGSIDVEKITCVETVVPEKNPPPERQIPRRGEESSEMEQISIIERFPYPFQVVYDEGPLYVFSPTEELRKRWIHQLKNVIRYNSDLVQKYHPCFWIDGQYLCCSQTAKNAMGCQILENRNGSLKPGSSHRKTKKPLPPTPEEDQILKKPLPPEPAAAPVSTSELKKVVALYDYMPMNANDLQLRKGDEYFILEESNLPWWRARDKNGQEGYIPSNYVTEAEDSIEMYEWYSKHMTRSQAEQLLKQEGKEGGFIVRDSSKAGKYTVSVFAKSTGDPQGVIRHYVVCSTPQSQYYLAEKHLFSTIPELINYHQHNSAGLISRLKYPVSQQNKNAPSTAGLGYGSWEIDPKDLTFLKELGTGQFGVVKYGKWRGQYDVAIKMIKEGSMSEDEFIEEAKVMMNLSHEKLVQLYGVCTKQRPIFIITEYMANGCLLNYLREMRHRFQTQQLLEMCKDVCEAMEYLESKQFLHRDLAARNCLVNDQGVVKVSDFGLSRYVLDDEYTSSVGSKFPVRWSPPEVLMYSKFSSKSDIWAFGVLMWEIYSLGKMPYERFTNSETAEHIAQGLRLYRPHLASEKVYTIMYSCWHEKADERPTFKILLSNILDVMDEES
Sequence of full-length wt-BTK enzyme (Q06187 whole entry): as above
Sequence of BTK T474S (Q06187 whole entry T474S): as the sequence (Q06187 whole entry) above, with T474S counted along it
Sequence of BTK T316A (Q06187 whole entry T316A): as the sequence (Q06187 whole entry) above, with T316A counted along it
Sequence of BTK T474I (Q06187 whole entry T474I): as the sequence (Q06187 whole entry) above, with T474I counted along it
Sequence of full-length BTK C481S enzyme (Q06187 whole entry C481S): as the sequence (Q06187 whole entry) above, with C481S counted along it
Sequence of BTK C481S (Q06187 whole entry C481S): as the sequence (Q06187 whole entry) above, with C481S counted along it

| Kd (wt-BTK) | Tau (h) wt-BTK (Act) (wt-BTK) | IC50 [1] | IC50 [2] | IC50 [3] | IC50 [4] | residence time (BTK T474S) | Kd (BTK T474S) | Kd (BTK T316A) | Tau (h) BTK T316A (Act) (BTK T316A) | Kd (BTK T474I) | Tau (h) BTK T474I (Act) (BTK T474I) | Tau (h) BTK C418S (Act) (BTK C481S) | Kd (BTK C481S) | target residence time on BTK C481 mutants (BTK C481S; result in words) | target residence time on wild-type-BTK (wt-BTK; result in words) | target residence time on BTK T474 mutants (T474S) (BTK T474S; result in words) | target residence time on BTK T316 mutants (BTK T316A; result in words) | target residence time on BTK T474 mutants (T474I) (BTK T474I; result in words) | Structure (SMILES) | IC50 (REC-1 T474I cell lines) |
| --- | --- | --- | --- | --- | --- | --- | --- | --- | --- | --- | --- | --- | --- | --- | --- | --- | --- | --- | --- | --- |
| < 5 nM | 4.53 h | < 100 nM | < 100 nM | < 5 nM | < 5 nM | 5.15 h | < 3 nM | < 5 nM | 4.74 h | < 2 nM | 0.63 h | – | – | – | – | – | – | – | Nc1ncc2c3c1c(-c1ccc(C(=O)Nc4cc(C(F)(F)F)ccn4)cc1)nn3[C@@H]1CCC[C@H](C1)NC(=O)COCCC/C=C/2 [Example 18] | < 100 nM |
| – | – | < 100 nM | < 100 nM | < 5 nM | < 5 nM | 1.14 h | – | – | 3.51 h | – | 1.31 h | 4.68 h | < 5 nM | – | – | – | – | – | C[C@@H]1CC(=O)N[C@@H]2CC[C@H](C2)n2nc(-c3ccc(C(=O)Nc4cc(C(F)(F)F)ccn4)cc3)c3c(N)ncc(c32)/C=C/CCN1 [Example 175] | 100 to 500 nM |
| < 5 nM | 8.77 h | < 100 nM | < 100 nM | < 5 nM | < 5 nM | – | – | < 5 nM | 2.99 h | < 2 nM | 0.92 h | 1.24 h | < 5 nM | – | – | – | – | – | Nc1ncc2c3c1c(-c1ccc(C(=O)Nc4cc(C(F)(F)F)ccn4)cc1)nn3[C@@H]1CCC[C@H](C1)C(=O)NCCCC/C=C/2 [Example 1] | < 100 nM |
| – | – | < 100 nM | < 100 nM | < 5 nM | < 5 nM | 1.06 h | < 3 nM | – | 1.05 h | 10 to 50 nM and < 5 nM | – | – | – | – | – | – | – | – | C[C@H]1CC(=O)N[C@@H]2CCC[C@H](C2)n2nc(-c3ccc(C(=O)Nc4cc(C(F)(F)F)ccn4)cc3)c3c(N)ncc(c32)/C=C/CCO1 [Example 156] | < 100 nM |
| – | 1.35 h | < 100 nM | < 100 nM | < 5 nM | < 5 nM | – | – | – | 4.98 h | – | 0.77 h | 3.56 h | < 5 nM | – | – | – | – | – | Nc1ncc2c3c1c(-c1ccc(C(=O)Nc4cc(C(F)(F)F)ccn4)cc1)nn3[C@@H]1CC[C@H](C1)NC(=O)[C@@H]1CCN1CC/C=C/2 [Example 174] | < 100 nM |
| – | – | < 100 nM | – | < 5 nM | < 5 nM | – | – | < 5 nM | 3.12 h | 10 to 50 nM and < 5 nM | 0.64 h | 6.69 h | < 5 nM | – | – | – | – | – | Nc1ncc2c3c1c(-c1ccc(C(=O)Nc4cc(C(F)(F)F)ccn4)cc1)nn3[C@@H]1CCC[C@H](C1)C(=O)NCCCCC/C=C\C2 [Example 89b] | – |

More lines, now with the values behind:

| Structure (SMILES) | Kd (wt-BTK) | Tau (h) wt-BTK (Act) (wt-BTK) | IC50 [1] | IC50 [2] | IC50 [3] | IC50 [4] | residence time (BTK T474S) | Kd (BTK T474S) | Kd (BTK T316A) | Tau (h) BTK T316A (Act) (BTK T316A) | Kd (BTK T474I) | Tau (h) BTK T474I (Act) (BTK T474I) | Tau (h) BTK C418S (Act) (BTK C481S) | Kd (BTK C481S) | target residence time on BTK C481 mutants (BTK C481S; result in words) | target residence time on wild-type-BTK (wt-BTK; result in words) | target residence time on BTK T474 mutants (T474S) (BTK T474S; result in words) | target residence time on BTK T316 mutants (BTK T316A; result in words) | target residence time on BTK T474 mutants (T474I) (BTK T474I; result in words) | IC50 (REC-1 T474I cell lines) |
| --- | --- | --- | --- | --- | --- | --- | --- | --- | --- | --- | --- | --- | --- | --- | --- | --- | --- | --- | --- | --- |
| Nc1ncc2n3c(nc(-c4ccc(C(=O)Nc5cc(C(F)(F)F)ccn5)cc4)c13)C1CCC[C@H](C1)NC(=O)CCC/C=C\C2 [Example 133b] | – | 4.39 h | < 100 nM | < 100 nM | – | – | 3.12 h | – | – | 1.96 h | – | – | 7.08 h | – | – | – | – | – | – | – |
| C[C@@H]1CC(=O)N[C@@H]2CCC[C@H](C2)n2nc(-c3ccc(C(=O)Nc4cc(C(F)(F)F)ccn4)cc3)c3c(N)ncc(c32)/C=C/CCN1C [Example 40] | < 5 nM | 6.49 h | < 100 nM | < 100 nM | < 5 nM | < 5 nM | 8.38 h | < 3 nM | < 5 nM | 2.16 h | < 2 nM | 0.85 h | – | – | – | – | – | – | – | < 100 nM |
| C[C@H]1CN(C2COC2)CCN1c1ccc(Nc2cc(-c3ccnc(N4CCn5c(cc6c5CC(C)(C)C6)C4=O)c3CO)cn(C)c2=O)nc1 [fenebrutinib, reference compound] | – | 0.29 h | – | – | – | – | 0.93 h | – | – | 0.03 h | – | 0.19 h | 0.08 h | – | short target residence times | short target residence times | short target residence times | short target residence times | short target residence times | – |
| Nc1ncc2c3c1c(-c1ccc(C(=O)Nc4cc(C(F)(F)F)ccn4)cc1)nn3[C@@H]1CCC[C@H](C1)NC(=O)CCCC[C@H](O)/C=C/2 [Example 11] | < 5 nM | 5.48 h | < 100 nM | < 100 nM | < 5 nM | < 5 nM | 4.3 h | < 3 nM | < 5 nM | 6.42 h | < 2 nM | 1.93 h | – | – | – | – | – | – | – | 100 to 500 nM |
| C[C@@H]1C[C@@H](C)n2nc(-c3ccc(C(=O)Nc4cc(C(F)(F)F)ccn4)cc3)c3c(N)ncc(c32)/C=C/COCCC(=O)N1 [Example 176] | – | 3.13 h | < 100 nM | < 100 nM | < 5 nM | < 5 nM | 1.95 h | – | – | 5.38 h | – | 1.94 h | – | – | – | – | – | – | – | < 100 nM |
